# Entries after “also recorded” stand apart in the source; their conditions may differ.
# Tests used:
# [1] = test system: TGase activity (tTGase and Factor XIIIa) in meniscal cells; assay: TGase activity in cultured knee meniscal cells (BP incorporation into N,N-dimethylcasein); assay type: cell-based, human; conditions: monolayer culture, 48-72 hrs; IL-1β, TGFβ, TNFα 10 ng/ml; Noc-12 2.5-25 μM; Sin-1 1-10 μM
# Description: Meniscal cells were maintained in DMEM high glucose and supplemented with 10% FCS, 1% L-glutamine, 100 units/ml Penicillin and 50 μg/ml Streptomycin (Omega Scientific, Tarzana, Calif.) and cultured at 37° C. with 5% CO2. In monolayer cell culture studies involving stimulation by TGFE[…] or IL-1, the cells were placed in DMEM high glucose containing 1% FCS, 1% L-glutamine, 100 units/ml Penicillin and 50 μg/ml Streptomycin. In all other studies, the cells were cultured in complete medium (as described above). Only primary or first passage meniscal cells were studied.
# (§1) TGase activity was measured by modifications to a previously described method (35). Specifically, we coated 96 well ImmunoModule plates (Nunc, Rochester, N.Y.) with 200 μl of 20 mg/ml N,N-dimethylcasein for 1 hr at 23° C. The N,N-dimethylcasein was removed and nonspecific protein binding was blocked by adding 3% BSA in 100 mM Tris, pH 8.5, 150 mM NaCl, 0.05% Tween-20 (TBST) to each well for an additional 1 hr at 23° C. Then, aliquots of 5 μg of total cellular protein from meniscal or TC28 cells that had been lysed and sonicated (in 5 mM Tris HCl, 0.25 M sucrose, 0.2 mM MgSO4, 2 mM DTT, 0.4 mM PMSF, 0.4% Triton X100, pH 7.5), were added to the plate in triplicate. To measure TGase in extracts of whole menisci, 50 mg dry weight of tissue from the central zone of each medial meniscus was used as the source (after solubilization and sonication) for aliquots of 5 μg of soluble protein. Fifty μl of solution A (100 mM Tris, pH 8.5 and 20 mM CaCl2) was added to all samples for TGase assay, followed by the addition of 50 μl of solution B (100 mM Tris, pH 8.5, 40 mM DTT and freshly added 2 mM 5-(Biotinamido) pentylamine (BP)). The plates were incubated for 1 hr at 37° C. The wells were washed once with TBST containing 1 mM EDTA and then three times with TBST. One hundred μl of a 1:500 dilution of streptavidin-AP in 3% BSA/TBST was added to each well for 1 hr at 23° C. The wells were washed twice with TBST, and 200 μl of solution C (100 mM Tris, pH 9.8, mM NaCl, 5 mM MgCl2, 1 mg/ml of freshly added p-nitrophenylphosphate) was added to each well. Readings at OD410 were taken over 15 minutes. Purified guinea pig liver TGase (Sigma) was used to prepare a standard curve. TGase activity was designated as the amount of BP incorporated into casein (per μg cellular DNA, determined chromogenically following precipitation in perchlorate (28), or, where indicated, per μg protein, determined as previously described (28)).
# To directly induce expression of each TGase in meniscal cells, 5×10^5 primary cells were plated in 60 mm dishes and allowed to adhere overnight. We modified (28) the manufacturer's protocol for the Lipofectamine Plus kit (Life Technologies, Grand Island, N.Y.). To optimize the transfection of meniscal cells, we added 2.0 ml of serum-free DMEM/F12 containing 0.00015% digitonin to washed cells and incubated for 3 min at 23° C. Then, media was removed, and cells transfected at 37° C. for 7 hrs, followed by removal of the media and addition of complete DMEM high glucose medium. Transfection of each TGase into TC28 cells was done by the same procedure, with the exception that the digitonin permeabilization step was omitted.
# [2] = test system: TGase activity in knee meniscal cells and TC28 cells; assay: TGase activity in nonadherent nodule-forming culture on polyHEME; assay type: cell-based, human; conditions: polyHEME plates, β-glycerophosphate, ascorbate, dexamethasone, up to 10 days; cytokines 10 ng/ml or TGase transfection
# Description: FIG. 10 refers to effects of direct Factor XIIIa and tTGase expression on TGase activity in meniscal cells and TC28 cells. Human chondrocytic TC28 cells or normal knee meniscal cells (5×10^5), were plated in 60 mm dishes and allowed to adhere overnight, as described in the Methods. Two μg of plasmid DNAs or empty plasmid vector were then transfected, performed as described above. After 24 hrs, the cells were removed from the dishes and plated on polyHEME-coated tissue culture plates and media supplemented with 10 mM P-glycerophosphate, ascorbatte (50 μg/ml) and dexamethasone (10^−8 M), which stimulated the cells to form mineralizing nodules for 3-10 days in culture. For comparison purposes, cells were treated only with IL-1 or TGFβ (10 ng/ml each) for up to 10 days. At each time point designated, the cell nodules were collected and lysed, and TGase activity then determined as previously described. For meniscal cells, data pooled from 6 donors studied in triplicate. For TC28 cells, n=6 each, studied in triplicate. Statistics not indicated on this graph, but p<0.05 for the increases in TGase activities in response to both Factor XIIIa and tTGase transfection, and for IL-1 treatment, at all time points.
# as §1, with “One hundred μl of a 1:500 dilution of streptavidin-AP in 3% BSA/TBST was added to each well for 1 hr at 23° C. The wells were washed twice with TBST, and 200 μl of solution C (100 mM Tris, pH 9.8, mM NaCl, 5 mM MgCl2, 1 mg/ml of freshly added p-nitrophenylphosphate) was added to each well.” left out, “Purified guinea pig liver TGase (Sigma) was used to prepare a standard curve.” left out, “(28)). […]” for “(28)).”
# [3] = test system: meniscal cells and TC28 cells; assay: Matrix calcification, quantitative Alizarin Red S binding assay; assay type: cell-based, human; conditions: polyHEME culture up to 10 days; cytokines 10 ng/ml or TGase transfection
# Description: TC28 cells and meniscal cells were transfected with empty plasmid or a TGase expression construct, and then transferred to polyHEME and cultured for up to 10 days, as described above. For comparison purposes, control untransfected cells were treated with IL-1 or TGFβ(10 ng/ml each) for up to 10 days. To measure matrix calcification, media and cells were removed from the PolyHEME-coated dishes, and 1 ml Alizarin Red S solution (0.5% v/v Alizarin Red S, pH 5.0) added to washed plates at 23° C. for 10 min. After further washing, 100 mM Cetylpyridium Chloride was added for 10 min to release the remaining calcium-bound Alizarin Red S. The solution was collected and read at OD570, with 1.0 OD570=1 unit of Alizarin Red released per μg of DNA per culture dish. n=6 each, studied in triplicate, and using 6 different knee meniscal donors. *p<0.05.
# To promote matrix calcification in short-term cultures, we modified a nonadherent chondrocyte culture system (37), and assessed cells that formed calcifying nodules over 10 days in culture. In brief, meniscal and TC28 cells, at 24 hours after the transfection, were washed and removed from the dish using 0.2 mg/ml EDTA, pH 8.0, then transferred to 6 well plates that had been previously coated with a 10% (wt./v) in 95% ethanol solution of Poly (2-Hydroxyethyl methacrylate) (polyHEME). […]
# To assay calcification of the pericellular matrix of meniscal cells and TC28 cells, we used a quantitative Alizarin Red S binding assay (38). […] The solution was collected and read at OD570 on a SpectraMAX microplate reader (Molecular Devices, Sunnyvale, Calif.), with 1 OD570=1 unit of Alizarin Red released per μg of DNA per culture dish. We extracted matrix crystals from plates under each condition using a papain-hypochlorite method (39), and the crystals were embedded in Spurr epoxy resin, sectioned, and viewed on a Philips EM340 transmission electron micrograph and analyzed by electron diffraction (40,41).
# [4] = test system: S100A11 mRNA in human articular chondrocytes; assay: S100A11 mRNA expression by RT-PCR; assay type: cell-based; conditions: 10 ng/ml, 24 hours, relative to L30
# Description: Normal human knee articular chondrocytes were treated in culture with IL-1 or IGF-I (10 ng/ml) for 24 hours and ascertained for S100A11 mRNA expression by RT-PCR, relative to the loading control L30, a ribosomal housekeeping gene. Results for induction of S100 A11 representative of 3 separate experiments with different donors.
# [5] = test system: alkaline phosphatase (AP); assay: AP activity of cultured meniscal cells; assay type: cell-based, human; conditions: 48 h, 10 ng/ml
# Description: (§2) Meniscal cells (from the same donors used in FIG. 3 above) were released from the matrix with collagenase digestion, and grown in monolayer culture for 72 hrs, then trypsinized and plated in 35 mm dishes (containing 3×10^5 cells) and allowed to adhere overnight. Cells were then treated for 48 h with 10 ng/ml of TGFβ or IL-1β (10 ng/ml) in 1% FCS-containing DMEM high glucose medium. The cells were collected and lysed for the TGase (FIG. 5A), NTPPPH (FIG. 5B), and AP (FIG. 5C) assays as described in the Methods. Five micrograms of soluble protein was studied in triplicate for each assay performed as previously described. Results were analyzed by linear regression, with results indicated.
# (§3) PPi was determined by differential adsorption on activated charcoal of UDP-D-[6-^3H] glucose (Amersham, Chicago, Ill.) from the reaction product 6-phospho [6-^3H] gluconate (28). Units of NTPPPH and AP were designated as micromoles of substrate hydrolyzed per hour (per μg DNA in each sample) (28). NO release by cultured meniscal cells was measured using the Greiss reaction (33). Concentrations or specific activities of PPi, NTPPPH, and AP were equalized for cellular DNA concentrations in each well.
# [6] = test system: tTGase and Factor XIIIa expression in knee articular cartilage and medial meniscus; assay: Immunohistochemistry of cartilage organ culture; assay type: cell-based, human; conditions: organ culture 48 hours
# Description: Articular cartilage and medial menisci from normal donors were studied in cartilage organ culture in media supplemented with 1% FCS and 1% L-glutamine, as described in the Methods, following 48 hours of treatment with TGFβ 10 ng/ml, IL-1β (1 ng/ml), or medium alone.
# Immunohistochemistry was performed as previously described in detail (30,33,34). In brief, immunohistochemical sections (5 microns) were pretreated with bovine testicular hyaluronidase (0.5 mg/ml at 37° C. for 30 min) and incubated in 5% normal goat or rabbit serum for 20 min prior to avidin/biotin peroxidase staining by the ABC method. Hematoxilin was used as the counterstain. Biotinylated anti-rabbit or anti-goat antibodies served as secondary antibodies. Levamisole was added to block endogenous alkaline phosphatase (AP). Negative controls were nonimmune rabbit or goat serum as a substitute for primary antibody.
# Meniscal cells were taken from tissue slices removed from the central regions of the medial and lateral menisci. Where indicated, meniscal organ culture was performed by incubating these slices for b 48 hours in DMEM high glucose containing 1% FCS and 1% L-glutamine (and articular cartilage organ culture performed in the same manner, where indicated). Otherwise, we minced meniscal tissue with a scalpel, incubated in DMEM high glucose containing 2 mg/ml clostridial collagenase, 5% FCS, 1% L-glutamine, 100 units/ml Penicillin and 50 μg/ml Streptomycin (Omega Scientific, Tarzana, Calif.), and incubated on a gyratory shaker at 37° C. until the tissue fragments were digested. Residual multicellular aggregates were removed by sedimentation (1,000×g), and cells were washed three times in DMEM containing 5% FCS.
# [7] = test system: NTPPPH; assay: NTPPPH activity of cultured meniscal cells; assay type: cell-based, human; conditions: 48 h, 10 ng/ml
# Description: as §2, §3
compound,measurement,setting,value
"CCNCCN(CC)N(O)N=O [Noc-12, reference compound]",Induction of TGase activity in cultured normal knee meniscal cells,[1],shared the ability of II-1 to induce TGase activity
"[NH-]c1c[n+](N2CCOCC2)no1 [Sin-1, reference compound]",Induction of TGase activity in cultured normal knee meniscal cells,[1],shared the ability of II-1 to induce TGase activity
"Factor XIIIa: recombinant human Factor XIIIa cDNA in pUC18, transfected into meniscal and TC28 cells",TGase activity under mineralizing nonadherent conditions,[2],markedly increased TGase activity
same,Matrix calcification (bound Alizarin Red S),[3],induced particularly marked increases in the amount of calcium precipitated in the matrix
"IGF-1: IGF-1, involved in the pathogenesis of osteoarthritis",S100A11 mRNA expression,[4],induce mRNA expression of S100A11
TGFβ: Human recombinant TGF-β1 purchased from R&D Systems,TGase activity under mineralizing nonadherent conditions,[2],did not significantly augment activity of TGase
same,AP activity,[5],did not significantly change
same,tTGase and Factor XIIIa immunostaining,"[6]; knee articular cartilage and meniscal cartilage slices, TGFβ 10 ng/ml, IL-1β 1 ng/ml",induced increased tTGase and Factor XIIIa immunostaining
same,tTGase expression,[6]; knee articular cartilage,up-regulated tTGase expression
same,NTPPPH activity,[7],stimulated increased NTPPPH activity in association with aging
same,Induction of TGase activity in cultured normal knee meniscal cells,[1],did not induce TGase activity; also recorded: but not TGFβ
TNFα,Induction of TGase activity in cultured normal knee meniscal cells,[1],stimulated increased TGase activity; also recorded: induce TGase activity
"tTGase: human 3.3 kb full length tTGase cDNA construct in pSG5, transfected into cells",TGase activity under mineralizing nonadherent conditions,[2],markedly increased TGase activity
same,Matrix calcification (bound Alizarin Red S),[3],induced particularly marked increases in the amount of calcium precipitated in the matrix
